The source of these data is patent publication US7771753B2, “Topical formulations comprising ceramic hydroxyapatite particles” (Laboratory Skin Care, Inc., priority 1995, dated 2010).

The test has as its system microorganisms (bacteria, fungi, pseudomonas aeruginosa, pseudomonas capacia, staphylococcus aureus, escherichia coli, candida albicans, aspergillus niger …). Nature of the test: Antimicrobial effectiveness of the agent used in the formulation. The note with it: salmonella typhimurium. The text has this: A preferred chemical antimicrobial agent for use under the invention is Triclosan. This agent used in the formulation has been found effective against the whole genera of microorganisms, (for example: bacteria, fungi, pseudomonas aeruginosa, pseudomonas capacia, staphylococcus aureus, escherichia coli, candida albicans, aspergillus niger, salmonella typhimurium, etc . . . ). […] The antimicrobial chemical agent is normally present in an amount of from 0.001-5% by weight, preferably from 0.05-2% by weight, and more preferably from 0.1-1% by weight.

As for `Oc1cc(Cl)ccc1Oc1ccc(Cl)cc1Cl` [Triclosan], the effectiveness against microorganisms entry is “effective”.
